From ChEMBL document CHEMBL1201862, “PubChem BioAssay data set” (2004)
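48-hour exposure; five concentrations; linearly interpolated endpoints. GI50 = concentration required for 50% inhibition of growth.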 Active and inactive are the calls of the source. Cut-off read from the data, not from the text of the source: active = GI50 up to about 1.1 µM and inactive = higher.

Legend:
Experiment in all cases: NCI tumour cell line growth inhibition, 48 h
[1] = system: MDA-MB-435
[2] = system: RXF 393
[3] = system: KM12
[4] = system: 786-0
[5] = system: K562
[6] = system: SK-MEL-28
[7] = system: M14
[8] = system: SW-620
[9] = system: HOP-92
[10] = system: OVCAR-4
[11] = system: SNB-75
[12] = system: IGROV-1
[13] = system: SK-OV-3
[14] = system: HL-60
[15] = system: SF-295
[16] = system: T47D
[17] = system: ACHN
[18] = system: HCT-15
[19] = system: NCI-H23
[20] = system: SNB-19
[21] = system: MDA-MB-231
[22] = system: CAKI-1
[23] = system: OVCAR-8
[24] = system: HT-29
[25] = system: NCI-H460
[26] = system: NCI/ADR-RES
[27] = system: NCI-H226
[28] = system: HCT-116
[29] = system: RPMI-8226
[30] = system: COLO 205
[31] = system: MOLT-4
[32] = system: EKVX
[33] = system: UACC-62
[34] = system: U-251
[35] = system: LOX IMVI
[36] = system: UO-31
[37] = system: SF-268
[38] = system: DU-145
[39] = system: SK-MEL-5
[40] = system: HCC 2998
[41] = system: Hs-578T
[42] = system: SF-539
[43] = system: UACC-257
[44] = system: MCF7
[45] = system: SR
[46] = system: CCRF-CEM
[47] = system: TK-10
[48] = system: A498
[49] = system: OVCAR-5
[50] = system: HOP-62
[51] = system: NCI-H522
[52] = system: OVCAR-3
[53] = system: A549
[54] = system: PC-3
[55] = system: Malme-3M
[56] = system: SK-MEL-2
[57] = system: SN12C
[58] = system: MDA-N

With CSC1=C(C(=O)Nc2ccc(C)cc2)C(N)=NC1=O the GI50 [1] was > 100 µM (inactive), the GI50 [2] was > 100 µM (inactive) and the GI50 [3] was > 100 µM (inactive). The GI50 [4] was > 100 µM (inactive), the GI50 [5] was > 100 µM (inactive) and the GI50 [6] was > 100 µM (inactive). The GI50 [7] was > 100 µM (inactive), the GI50 [8] was > 100 µM (inactive) and the GI50 [9] was > 100 µM (inactive). For the same compound, the GI50 [10] was > 100 µM (inactive), the GI50 [11] was > 100 µM (inactive) and the GI50 [12] was > 100 µM (inactive). The GI50 [13] was > 100 µM (inactive), the GI50 [14] was > 100 µM (inactive) and the GI50 [15] was > 100 µM (inactive). For the same compound, the GI50 [16] was > 100 µM (inactive), the GI50 [17] was > 100 µM (inactive) and the GI50 [18] was greater than 100 µM. For the same compound, the GI50 [19] was > 100 µM (inactive), the GI50 [20] was > 100 µM (inactive) and the GI50 [21] was > 100 µM (inactive). For the same compound, the GI50 [22] was > 100 µM (inactive), the GI50 [23] was > 100 µM (inactive) and the GI50 [24] was > 100 µM (inactive). The GI50 [25] was > 100 µM (inactive), the GI50 [26] was > 100 µM (inactive) and the GI50 [27] was > 100 µM (inactive). The GI50 [28] was > 100 µM (inactive), the GI50 [29] was > 100 µM (inactive) and the GI50 [30] was > 100 µM (inactive). The GI50 [31] was > 100 µM (inactive), the GI50 [32] was > 100 µM (inactive) and the GI50 [33] was > 100 µM (inactive). For the same compound, the GI50 [34] was > 100 µM (inactive), the GI50 [35] was > 100 µM (inactive) and the GI50 [36] was > 100 µM (inactive). The GI50 [37] was > 100 µM (inactive), the GI50 [38] was > 100 µM (inactive) and the GI50 [39] was > 100 µM (inactive). The GI50 [40] was > 100 µM (inactive), the GI50 [41] was > 100 µM (inactive) and the GI50 [42] was > 100 µM (inactive). For the same compound, the GI50 [43] was > 100 µM (inactive), the GI50 [44] was > 100 µM (inactive) and the GI50 [45] was 81.5 µM (inactive). The GI50 [46] was > 100 µM (inactive) and the GI50 [47] was > 100 µM (inactive).

For COC(=O)c1c2c(cc3c1CC1(Cc4cc5c(cc4C1)CCCC5)C3)CCCC2, the GI50 [48] was > 100 µM (inactive), the GI50 [1] was > 100 µM (inactive) and the GI50 [2] was 25.8 µM (inactive). The GI50 [3] was > 100 µM (inactive), the GI50 [4] was > 100 µM (inactive) and the GI50 [5] was > 100 µM (inactive). For the same compound, the GI50 [7] was > 100 µM (inactive), the GI50 [49] was > 100 µM (inactive) and the GI50 [9] was > 100 µM (inactive). For the same compound, the GI50 [10] was > 100 µM (inactive), the GI50 [11] was 0.155 µM (active) and the GI50 [50] was > 100 µM (inactive). The GI50 [12] was > 100 µM (inactive), the GI50 [13] was > 100 µM (inactive) and the GI50 [51] was > 100 µM (inactive). For the same compound, the GI50 [14] was 80.4 µM (inactive), the GI50 [15] was > 100 µM (inactive) and the GI50 [16] was > 100 µM (inactive). The GI50 [17] was > 100 µM (inactive), the GI50 [18] was greater than 100 µM and the GI50 [19] was > 100 µM (inactive). For the same compound, the GI50 [21] was > 100 µM (inactive), the GI50 [52] was > 100 µM (inactive) and the GI50 [23] was > 100 µM (inactive). The GI50 [24] was > 100 µM (inactive), the GI50 [53] was 46.3 µM (inactive) and the GI50 [54] was > 100 µM (inactive). The GI50 [26] was > 100 µM (inactive), the GI50 [55] was > 100 µM (inactive) and the GI50 [28] was 15.3 µM (inactive). The GI50 [29] was > 100 µM (inactive), the GI50 [30] was > 100 µM (inactive) and the GI50 [56] was > 100 µM (inactive). The GI50 [31] was > 100 µM (inactive), the GI50 [32] was > 100 µM (inactive) and the GI50 [33] was > 100 µM (inactive). The GI50 [34] was > 100 µM (inactive), the GI50 [35] was > 100 µM (inactive) and the GI50 [36] was > 100 µM (inactive). The GI50 [57] was > 100 µM (inactive), the GI50 [39] was > 100 µM (inactive) and the GI50 [40] was > 100 µM (inactive). For the same compound, the GI50 [41] was > 100 µM (inactive), the GI50 [42] was > 100 µM (inactive) and the GI50 [58] was > 100 µM (inactive). For the same compound, the GI50 [43] was > 100 µM (inactive), the GI50 [44] was > 100 µM (inactive) and the GI50 [45] was 27.5 µM (inactive). The GI50 [46] was 12 µM (inactive) and the GI50 [47] was > 100 µM (inactive).

With CN(C)c1nc2oc(-c3ccccc3)c(-c3ccccc3)c2c2nncn12 the GI50 [48] was > 100 µM (inactive), the GI50 [1] was > 100 µM (inactive) and the GI50 [2] was > 100 µM (inactive). The GI50 [3] was > 100 µM (inactive), the GI50 [4] was > 100 µM (inactive) and the GI50 [5] was > 100 µM (inactive). The GI50 [6] was > 100 µM (inactive), the GI50 [7] was > 100 µM (inactive) and the GI50 [8] was > 100 µM (inactive). For the same compound, the GI50 [49] was > 100 µM (inactive), the GI50 [9] was > 100 µM (inactive) and the GI50 [10] was > 100 µM (inactive). For the same compound, the GI50 [11] was 53.5 µM (inactive), the GI50 [12] was > 100 µM (inactive) and the GI50 [13] was > 100 µM (inactive). The GI50 [51] was > 100 µM (inactive), the GI50 [15] was > 100 µM (inactive) and the GI50 [16] was > 100 µM (inactive). The GI50 [17] was > 100 µM (inactive), the GI50 [18] was greater than 100 µM and the GI50 [19] was > 100 µM (inactive). The GI50 [20] was > 100 µM (inactive), the GI50 [21] was > 100 µM (inactive) and the GI50 [22] was > 100 µM (inactive). The GI50 [23] was > 100 µM (inactive), the GI50 [24] was > 100 µM (inactive) and the GI50 [53] was > 100 µM (inactive). For the same compound, the GI50 [26] was > 100 µM (inactive), the GI50 [27] was > 100 µM (inactive) and the GI50 [28] was > 100 µM (inactive). For the same compound, the GI50 [29] was > 100 µM (inactive), the GI50 [30] was > 100 µM (inactive) and the GI50 [31] was > 10 µM (inactive). The GI50 [32] was > 100 µM (inactive), the GI50 [33] was > 100 µM (inactive) and the GI50 [34] was > 100 µM (inactive). The GI50 [35] was > 100 µM (inactive), the GI50 [36] was > 100 µM (inactive) and the GI50 [57] was > 100 µM (inactive). The GI50 [37] was > 100 µM (inactive), the GI50 [38] was > 100 µM (inactive) and the GI50 [40] was > 100 µM (inactive). For the same compound, the GI50 [41] was > 100 µM (inactive), the GI50 [42] was > 100 µM (inactive) and the GI50 [43] was > 100 µM (inactive). The GI50 [44] was > 100 µM (inactive), the GI50 [45] was > 100 µM (inactive) and the GI50 [46] was > 100 µM (inactive). For the same compound, the GI50 [47] was > 100 µM (inactive).

In the case of COc1cc(/C=C/c2ccc(S(N)(=O)=O)cc2)cc(OC)c1, the GI50 [48] is reported as 18.2 µM (inactive), the GI50 [2] is reported as 13.1 µM (inactive) and the GI50 [4] is reported as 21.5 µM (inactive). The GI50 [6] was 23.9 µM (inactive), the GI50 [7] was 51.2 µM (inactive) and the GI50 [49] was 39.8 µM (inactive). The GI50 [11] was 14.1 µM (inactive), the GI50 [50] was 28.9 µM (inactive) and the GI50 [13] was 24.5 µM (inactive). The GI50 [15] was 22.6 µM (inactive), the GI50 [16] was 8.18 µM (inactive) and the GI50 [20] was 39.1 µM (inactive). For the same compound, the GI50 [21] was 16.9 µM (inactive), the GI50 [52] was 16.5 µM (inactive) and the GI50 [54] was 19.5 µM (inactive). For the same compound, the GI50 [25] was 17.7 µM (inactive), the GI50 [26] was 23.8 µM (inactive) and the GI50 [55] was 14.8 µM (inactive). For the same compound, the GI50 [28] was 14.5 µM (inactive), the GI50 [30] was 15.9 µM (inactive) and the GI50 [56] was 18.7 µM (inactive). For the same compound, the GI50 [32] was 22.4 µM (inactive), the GI50 [36] was 21.9 µM (inactive) and the GI50 [57] was 22.6 µM (inactive). For the same compound, the GI50 [38] was 32.7 µM (inactive), the GI50 [39] was 16.2 µM (inactive) and the GI50 [40] was 19.7 µM (inactive). For the same compound, the GI50 [58] was 20.6 µM (inactive), the GI50 [43] was 20.3 µM (inactive) and the GI50 [44] was 24.6 µM (inactive). For the same compound, the GI50 [47] was 22.4 µM (inactive).
